We go through twelve compounds from patent US6677368B2, “4-aryl substituted indolinones” (Sugen, Inc., priority 2000, dated 2004).

pIC50: −log10 of the molar value. A value given as a limit tells only on which side of the number the result lay.

Assay type in all cases: biochemical
The target in one experiment is P38 (Homo sapiens, UniProt Q16539). Description: P38 kinase inhibition.
A further experiment deals with FGFR1 (Homo sapiens, UniProt P11362). Nature of the experiment: FGFR1 bioassay (ELISA, in vitro kinase activity). Conditions: purified GST-FGFR1, poly(Glu-Tyr) substrate. On the procedure:
This assay is used to measure the in vitro kinase activity of FGF1-R in an ELISA assay.
1. Costar 96-well ELISA plates (Corning Catalog #3369).
2. Poly(Glu-Tyr) (Sigma Catalog #P0275).
4. 50 mM Hepes Buffer Solution.
5. Blocking Buffer (5% BSA/PBS).
6. Purified GST-FGFR1 (SUGEN, Inc.)
7. Kinase Dilution Buffer. Mix 500 μl 1M Hepes (GIBCO), 20 μl 5% BSA/PBS, 10 μl 100 mM sodium orthovanadate and 50 μl 5M NaCl.
9. ATP/MnCl2 phosphorylation mix: mix 20 μL ATP, 400 μL 1M MnCl2 and 9.56 ml dH2O.
10. NUNC 96-well V bottom polypropylene plates (Applied Scientific Catalog #AS-72092).
12. 0.05% TBST Add 500 μL TWEEN to 1 liter TBS.
13. Rabbit polyclonal anti-phosphotyrosine serum (SUGEN, Inc.).
14. Goat anti-rabbit IgG peroxidase conjugate (Biosource, Catalog #ALI0404).
1. Coat Costar 96 well ELISA plates with 1 μg per well Poly(Glu-Tyr) in 100 μl PBS. Store overnight at 4° C.
2. Wash coated plates once with PBS.
3. Add 150 μL of 5%BSA/PBS Blocking Buffer to each well. Incubate, with shaking, for 1 hr at room temperature.
4. Wash plate 2× with PBS, then once with 50 mM Hepes. Pat plates on a paper towel to remove excess liquid and bubbles.
5. Add 25 μL of 0.4 mM test compound in 4% DMSO or 4% DMSO alone (controls) to plate.
6. Dilute purified GST-FGFR1 in Kinase Dilution Buffer (5 ng kinase/50 μl KDB/well).
7. Add 50 μL of diluted kinase to each well.
8. Start kinase reaction by adding 25 μl/well of freshly prepared ATP/Mn++ (0.4 ml 1M MnCl2, 40 μL 10 mM ATP, 9.56 ml dH2O), freshly prepared).
9. Stop reaction with 25 μL of 0.5M EDTA.
10. Wash plate 4× with fresh TBST.
11. Make up Antibody Dilution Buffer: For 50 ml, mix 5 ml of 5% BSA, 250 μl of 5% milk and 50 μl of 100 mM sodium vanadate, bring to final volume with 0.05% TBST.
12. Add 100 μl per well of anti-phosphotyrosine (1:10000 dilution in ADB). Incubate, with shaking for 1 hr. at room temperature.
14. Add 100 μl per well of Biosource Goat anti-rabbit IgG peroxidase conjugate (1:6000 dilution in ADB). Incubate, with shaking for 1 hr. at room temperature.
15. Wash as in step 10 and then with PBS to remove bubbles and excess TWEEN.
16. Add 100 μl of ABTS/H2O2 solution to each well.
17. Incubate, with shaking, for 10 to 20 minutes. Remove any bubbles.
18. Read assay on Dynatech MR7000 ELISA reader: test filter at 410 nM, reference filter at 630 nM.
(In general: An ELISA detects its analyte on a solid surface through an enzyme-linked reagent.)

In the next experiment the target is T1, MET (Homo sapiens, UniProt P08581).
T1 construct: Purified GST fusion protein containing the Met kinase domain, SUGEN, Inc
T1 sequence (P08581 1078-1345 limits assumed): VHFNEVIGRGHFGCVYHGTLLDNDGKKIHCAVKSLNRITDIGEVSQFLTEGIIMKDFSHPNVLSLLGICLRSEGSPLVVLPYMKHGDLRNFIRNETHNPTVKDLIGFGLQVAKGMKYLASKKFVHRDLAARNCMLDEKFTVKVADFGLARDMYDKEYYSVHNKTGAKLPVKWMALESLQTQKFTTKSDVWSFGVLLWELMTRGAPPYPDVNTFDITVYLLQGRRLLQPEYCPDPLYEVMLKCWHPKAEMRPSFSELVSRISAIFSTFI
Description: MET transphosphorylation assay. Particulars: GST fusion protein containing the Met kinase domain, poly(glu-tyr) substrate. The method, then:
MET TRANSPHOSPHORYLATION ASSAY
This assay is used to measure phosphotyrosine levels on a poly(glutamic acid:tyrosine, 4:1) substrate as a means for identifying agonists/antagonists of met transphosphorylation of the substrate.
1. Corning 96-well ELISA plates, Corning Catalog #25805-96.
2. Poly(glu-tyr), 4:1, Sigma, Cat. No; P 0275.
5. Blocking Buffer: Dissolve 25 g Bovine Serum Albumin, Sigma Cat. No A-7888, in 500 ml PBS, filter through a […] filter.
6. Purified GST fusion protein containing the Met kinase domain, SUGEN, Inc.
8. 10% aqueous (MilliQue H2O) DMSO.
9. 10 mM aqueous (dH2O) Adenosine-5′-triphosphate, Sigma Cat. No. A-5394.
10. 2×Kinase Dilution Buffer: for 100 ml, mix 10 mL 1M HEPES at pH 7.5 with 0.4 mL 5% BSA/PBS, 0.2 mL 0.1 M sodium orthovanadate and 1 mL 5M sodium chloride in 88.4 mL dH2O.
11. 4×ATP Reaction Mixture: for 10 mL, mix 0.4 mL 1 M manganese chloride and 0.02 mL 0.1 M ATP in 9.56 mL dH2O.
12. 4×Negative Controls Mixture: for 10 mL, mix 0.4 mL 1 M manganese chloride in 9.6 mL dH2O.
13. NUNC 96-well V bottom polypropylene plates, Applied Scientific Catalog #S-72092
15. Antibody Dilution Buffer: for 100 mL, mix 10 mL 5% BSA/PBS, 0.5 mL 5% Carnation® Instant Milk in PBS and 0.1 mL 0.1 M sodium orthovanadate in 88.4 mL TBST.
16. Rabbit polyclonal antophosphotyrosine antibody, SUGEN, Inc.
17. Goat anti-rabbit horseradish peroxidase conjugated antibody, Biosource, Inc.
18. ABTS Solution: for 1 L, mix 19.21 g citric acid, 35.49 g Na2HPO4 and 500 mg ABTS with sufficient dH2O to make 1 L.
19. ABTS/H2O2: mix 15 mL ABST solution with 2μL H2O2 five minutes before use.
1. Coat ELISA plates with 2 μg Poly(Glu-Tyr) in 100 μL PBS, hold overnight at 4° C.
2. Block plate with 150 μL of 5% BSA/PBS for 60 min.
3. Wash plate twice with PBS then once with 50 mM Hepes buffer pH 7.4.
4. Add 50 μl of the diluted kinase to all wells. (Purified kinase is diluted with Kinase Dilution Buffer. Final concentration should be 10 ng/well.)
5. Add 25 μL of the test compound (in 4% DMSO) or DMSO alone (4% in dH2O) for controls to plate.
6. Incubate the kinase/compound mixture for 15 minutes.
7. Add 25 μL of 40 mM MnCl2 to the negative control wells.
8. Add 25 μL ATP/MnCl2 mixture to the all other wells (except the negative controls). Incubate for 5 min.
9. Add 25 μL 500 mM EDTA to stop reaction.
10. Wash plate 3× with TBST.
11. Add 100 μL rabbit polyclonal anti-Ptyr diluted 1:10,000 in Antibody Dilution Buffer to each well. Incubate, with shaking, at room temperature for one hour.
12. Wash plate 3× with TBST.
13. Dilute Biosource HRP conjugated anti-rabbit antibody 1:6,000 in Antibody Dilution buffer. Add 100 μL per well and incubate at room temperature, with shaking, for one hour.
14. Wash plate 1× with PBS.
15. Add 100 μl of ABTS/H2O2 solution to each well.
16. If necessary, stop the development reaction with the addition of 100 μl of 0.2M HCl per well.
17. Read plate on Dynatech MR7000 ELISA reader with the test filter at 410 nM and the reference filter at 630 nM.

Sequence of FGFR1 (P11362 22-822, species assumed): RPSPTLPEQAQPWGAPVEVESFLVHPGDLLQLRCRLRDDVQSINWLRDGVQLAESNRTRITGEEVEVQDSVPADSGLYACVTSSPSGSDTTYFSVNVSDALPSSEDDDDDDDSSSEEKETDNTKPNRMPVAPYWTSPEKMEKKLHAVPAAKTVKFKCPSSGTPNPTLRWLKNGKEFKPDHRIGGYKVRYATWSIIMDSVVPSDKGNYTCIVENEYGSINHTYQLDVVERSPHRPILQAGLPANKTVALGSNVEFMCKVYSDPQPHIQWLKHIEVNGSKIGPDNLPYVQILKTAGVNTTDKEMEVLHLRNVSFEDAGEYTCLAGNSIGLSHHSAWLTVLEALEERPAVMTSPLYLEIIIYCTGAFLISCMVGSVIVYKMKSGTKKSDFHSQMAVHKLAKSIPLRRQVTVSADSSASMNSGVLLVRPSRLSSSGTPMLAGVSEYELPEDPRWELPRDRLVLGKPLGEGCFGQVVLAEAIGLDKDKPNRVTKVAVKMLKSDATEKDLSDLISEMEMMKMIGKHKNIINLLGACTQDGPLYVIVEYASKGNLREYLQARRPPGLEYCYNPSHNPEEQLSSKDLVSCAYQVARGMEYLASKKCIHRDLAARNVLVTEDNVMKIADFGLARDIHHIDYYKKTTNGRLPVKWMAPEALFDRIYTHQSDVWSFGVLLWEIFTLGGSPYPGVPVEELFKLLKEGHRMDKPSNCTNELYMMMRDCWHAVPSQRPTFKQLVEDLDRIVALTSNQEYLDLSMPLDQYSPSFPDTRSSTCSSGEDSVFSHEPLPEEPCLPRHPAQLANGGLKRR
Sequence of P38 (Q16539 whole entry): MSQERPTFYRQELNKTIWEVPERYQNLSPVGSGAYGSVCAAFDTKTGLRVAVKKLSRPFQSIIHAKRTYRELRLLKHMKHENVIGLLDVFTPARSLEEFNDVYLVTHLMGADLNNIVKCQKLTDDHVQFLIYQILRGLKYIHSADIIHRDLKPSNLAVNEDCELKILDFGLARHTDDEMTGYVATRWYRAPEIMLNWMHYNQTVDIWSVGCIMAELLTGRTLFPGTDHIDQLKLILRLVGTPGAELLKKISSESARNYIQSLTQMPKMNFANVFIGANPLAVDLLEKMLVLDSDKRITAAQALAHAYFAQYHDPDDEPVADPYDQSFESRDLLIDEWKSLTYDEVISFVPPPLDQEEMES

The term pIC50 denotes the negative decadic logarithm of the IC50, by convention in mol/L. Read a low pIC50 as a large IC50. Turning to `CCN(CC)CCNC(=O)c1c(C)[nH]c(/C=C2\C(=O)Nc3cccc(-c4ccccc4)c32)c1C` [Example 3, 2,4-Dimethyl-5-(2-oxo-4-phenyl-1,2-dihydro-indol-3-ylidenemethyl)-1H-pyrrole-3-carboxylic Acid (2-Diethylamino-ethyl)-amide], the pIC50 on P38 was less than 5.00; on FGFR1, 7.51; on MET it was 7.11.

Take `Cc1[nH]c(/C=C2\C(=O)Nc3cccc(-c4ccc(F)cc4)c32)c(C)c1C(=O)N1CCN(C)CC1` [Example 4, 3-[3,5-Dimethyl-4-(4-methyl-piperazine-1-carbonyl)-1H-pyrrol-2-ylmethylene]-4-(4-fluoro-phenyl)-1,3-dihydro-indol-2-one]: the figures for the pIC50 at P38, against FGFR1 and against MET were less than 5.00, 6.13 and 6.15, respectively.

As for `Cc1[nH]c(/C=C2\C(=O)Nc3cccc(-c4ccc(F)cc4)c32)c(C)c1C(=O)NCCN1CCCC1` [Example 6, 5-[4-(4-Fluoro-phenyl)-2-oxo-1,2-dihydro-indol-3-ylidenemethyl]-2,4-dimethyl-1H-pyrrole-3-carboxylic Acid (2-Pyrrolidin-1-yl-ethyl)-amide], the pIC50 is less than 5.00 on P38, 7.24 on FGFR1 and 7.14 at MET.

`Cc1cc(C(=O)N2CC[C@H](N(C)C)C2)c(/C=C2\C(=O)Nc3cccc(-c4ccc(F)cc4)c32)[nH]1` [Example 10, 3-[3-((S)-3-Dimethylamino-pyrrolidine-1-carbonyl)-5-methyl-1H-pyrrol-2-ylmethylene]-4-(4-fluoro-phenyl)-1,3-dihydro-indol-2-one]: the pIC50 against P38 is less than 5.00; against FGFR1, 5.81; against MET it was 6.64.

In the case of `CCN(CC)CCNC(=O)c1c(C)[nH]c(/C=C2\C(=O)Nc3cccc(-c4cccc(F)c4)c32)c1C` [Example 13, 5-[4-(3-Fluoro-phenyl)-2-oxo-1,2-dihydro-indol-3-ylidenemethyl]-2,4-dimethyl-1H-pyrrole-3-carboxylic Acid (2-Diethylamino-ethyl)-amide], the pIC50 is less than 5.00 at P38, greater than 8.04 against FGFR1 and 7.00 against MET.

With `Cc1[nH]c(/C=C2\C(=O)Nc3cccc(-c4cccc(F)c4)c32)c(C)c1C(=O)NCCn1ccnn1` [Example 15, 5-[4-(3-Fluoro-phenyl)-2-oxo-1,2-dihydro-indol-3-ylidenemethyl]-2,4-dimethyl-1H-pyrrole-3-carboxylic Acid (2-[1,2,3]Triazol-1-yl-ethyl)-amide], the values for the negative logarithm of the IC50 (pIC50) on P38, against FGFR1 and on MET were 5.31, 5.68 and 6.43, respectively.

Take `CCN(CC)CCNC(=O)c1c(C)[nH]c(/C=C2\C(=O)Nc3cccc(-c4cccc(Br)c4)c32)c1C` [Example 63, 5-[4-(3-Bromo-phenyl)-2-oxo-1,2-dihydro-indol-3-ylidenemethyl]-2,4-dimethyl-1H-pyrrole-3-carboxylic Acid (2-Diethylamino-ethyl)-amide]: the pIC50 on FGFR1 is 6.62; against MET, 7.37.

Regarding `Cc1[nH]c(/C=C2\C(=O)Nc3cccc(-c4ccccc4F)c32)c(C)c1C(=O)N1CCN(C)CC1` [Example 93, 3-[3,5-Dimethyl-4-(4-methyl-piperazine-1-carbonyl)-1H-pyrrol-2-ylmethylene]-4-(2-fluoro-phenyl)-1,3-dihydro-indol-2-one], the negative logarithm of the IC50 (pIC50) is 7.08 against FGFR1 and 7.10 at MET.

Turning to `Cc1cc(C(=O)NCCn2ccnn2)c(/C=C2\C(=O)Nc3cccc(-c4ccccc4F)c32)[nH]1` [Example 99, 2-[4-(2-Fluoro-phenyl)-2-oxo-1,2-dihydro-indol-3-ylidenemethyl]-5-methyl-1H-pyrrole-3-carboxylic Acid (2-[1,2,3]Triazol-1-yl-ethyl)-amide], the pIC50 was 6.21 against FGFR1 and 6.74 against MET.

For the compound `Cc1[nH]c(/C=C2\C(=O)Nc3cccc(-c4cccc(C(F)(F)F)c4)c32)c(C)c1C(=O)N1CCN(C)CC1` [Example 104, 3-[3,5-Dimethyl-4-(4-methyl-piperazine-1-carbonyl)-H-pyrrol-2-ylmethylene]-4-(3-trifluoromethyl-phenyl)-1,3-dihydro-indol-2-one], the negative-log IC50 (pIC50) at FGFR1 is 6.52; on MET it was 6.24.

`Cc1cc(C(=O)NCCN2CCCC2)c(/C=C2\C(=O)Nc3cccc(-c4ccc(F)c(Cl)c4)c32)[nH]1` [Example 119, 2-[4-(3-Chloro-4-fluoro-phenyl)-2-oxo-1,2-dihydro-indol-3-ylidenemethyl]-5-methyl-1H-pyrrole-3-carboxylic Acid (2-Pyrrolidin-1-yl-ethyl)-amide]: the results for the pIC50 against FGFR1 and against MET were 6.62 and 7.23, respectively.

Consider `CCN(CC)CCNC(=O)c1c(C)[nH]c(/C=C2\C(=O)Nc3cccc(-c4ccc(OC(F)(F)F)cc4)c32)c1C` [Example 140, 2,4-Dimethyl-5-[2-oxo-4-(4-trifluoromethoxy-phenyl)-1,2-dihydro-indol-3-ylidenemethyl]-1H-pyrrole-3-carboxylic Acid (2-Diethylamino-ethyl)-amide], for which the pIC50 was 6.28 against FGFR1 and 6.17 against MET.
